# US20250302832A1, “PYRAZINE DERIVATIVES AND USES THEREOF” (FOGHORN THERAPEUTICS INC., priority 2022, published 2025)
# Columns and labels:
# [1] = molecular target: T1, HiBit-BRG1 fusion protein (Homo sapiens, UniProt P51532); assay: HiBiT-BRG1 cell-based degradation assay (Nano-Glo HiBiT lytic detection, 24 h); conditions: HeLa cell line expressing HiBit-BRG1 and LgBit; for Dmax: read-out: BRG1 HiBit Degradation Maximum (%); for DC50: read-out: BRMG1 HiBit Degradation IC50
# T1 construct: expressed in transfected cells
# Procedure, shortened: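 Luminescence from HiBiT/LgBiT complementation after lytic detection reagent was read following 24 h compound exposure of HeLa cells stably carrying HiBiT-BRG1 plus LgBiT (5000 cells/well). Signal scaled to % degradation using DMSO-treated cells as 0% and cells given 2 μM known BRM/BRG1 degrader as 100%.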
# HiBit-BRM fusion protein = molecular target: T2, HiBit-BRM fusion protein (Homo sapiens, UniProt P51531); assay: HiBiT-BRM cell-based degradation assay (Nano-Glo HiBiT lytic detection, 24 h); conditions: HeLa cell line expressing HiBiT-BRM; for DC50: read-out: BRM HiBit Degradation IC50
# T2 construct: expressed in transfected cells
# Procedure, shortened: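 Luminescence from LgBiT complementation quantified remaining HiBiT-BRM in stably expressing HeLa cells after 24 h compound exposure (top final dose 30 μM, 3-fold, 10 points, duplicate). Degradation expressed as percent relative to DMSO and a 2 μM reference degrader.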
# T1 sequence (P51532 whole entry, the tested form may be a part): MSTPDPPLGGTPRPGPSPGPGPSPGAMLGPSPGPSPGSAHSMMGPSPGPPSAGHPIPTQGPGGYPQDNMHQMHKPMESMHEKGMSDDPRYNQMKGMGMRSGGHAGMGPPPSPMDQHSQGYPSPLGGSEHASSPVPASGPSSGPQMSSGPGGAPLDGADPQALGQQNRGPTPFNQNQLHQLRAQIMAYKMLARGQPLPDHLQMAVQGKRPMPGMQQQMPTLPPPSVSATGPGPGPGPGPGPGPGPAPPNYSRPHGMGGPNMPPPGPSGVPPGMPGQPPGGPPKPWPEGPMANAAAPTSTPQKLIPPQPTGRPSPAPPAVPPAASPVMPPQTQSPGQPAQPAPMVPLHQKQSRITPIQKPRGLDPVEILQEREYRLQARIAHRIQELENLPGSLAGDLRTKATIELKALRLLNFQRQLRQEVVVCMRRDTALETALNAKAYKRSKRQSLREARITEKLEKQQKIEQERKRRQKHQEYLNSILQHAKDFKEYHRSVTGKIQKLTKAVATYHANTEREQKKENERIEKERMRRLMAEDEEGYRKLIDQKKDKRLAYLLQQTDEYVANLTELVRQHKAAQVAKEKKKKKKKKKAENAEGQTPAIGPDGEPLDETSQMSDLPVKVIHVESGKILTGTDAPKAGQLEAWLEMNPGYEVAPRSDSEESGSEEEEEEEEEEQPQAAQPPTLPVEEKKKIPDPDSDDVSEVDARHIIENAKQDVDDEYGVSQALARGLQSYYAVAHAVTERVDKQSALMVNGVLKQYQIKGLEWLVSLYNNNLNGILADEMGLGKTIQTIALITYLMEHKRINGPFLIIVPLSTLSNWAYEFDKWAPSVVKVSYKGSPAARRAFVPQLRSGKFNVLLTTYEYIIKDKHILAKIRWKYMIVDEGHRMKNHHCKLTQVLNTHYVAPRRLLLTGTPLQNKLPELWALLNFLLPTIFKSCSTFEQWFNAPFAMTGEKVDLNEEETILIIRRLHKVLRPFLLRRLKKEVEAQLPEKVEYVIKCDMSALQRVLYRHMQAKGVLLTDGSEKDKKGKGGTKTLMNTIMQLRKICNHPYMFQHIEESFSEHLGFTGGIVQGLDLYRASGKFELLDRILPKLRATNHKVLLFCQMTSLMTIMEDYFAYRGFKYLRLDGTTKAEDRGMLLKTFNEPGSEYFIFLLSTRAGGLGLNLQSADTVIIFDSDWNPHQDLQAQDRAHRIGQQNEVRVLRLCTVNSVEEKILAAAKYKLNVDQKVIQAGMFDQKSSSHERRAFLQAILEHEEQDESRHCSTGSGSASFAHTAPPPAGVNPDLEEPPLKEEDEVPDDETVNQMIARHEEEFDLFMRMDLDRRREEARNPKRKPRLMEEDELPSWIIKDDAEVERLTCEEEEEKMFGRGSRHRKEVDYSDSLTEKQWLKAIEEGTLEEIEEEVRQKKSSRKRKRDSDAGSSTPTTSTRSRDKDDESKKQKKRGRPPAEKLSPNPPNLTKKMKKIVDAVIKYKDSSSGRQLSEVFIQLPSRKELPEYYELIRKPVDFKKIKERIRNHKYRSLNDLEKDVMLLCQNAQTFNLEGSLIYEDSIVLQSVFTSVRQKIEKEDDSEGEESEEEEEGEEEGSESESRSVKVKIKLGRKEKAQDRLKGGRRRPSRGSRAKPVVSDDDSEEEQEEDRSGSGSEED
# T2 sequence (P51531 whole entry, the tested form may be a part): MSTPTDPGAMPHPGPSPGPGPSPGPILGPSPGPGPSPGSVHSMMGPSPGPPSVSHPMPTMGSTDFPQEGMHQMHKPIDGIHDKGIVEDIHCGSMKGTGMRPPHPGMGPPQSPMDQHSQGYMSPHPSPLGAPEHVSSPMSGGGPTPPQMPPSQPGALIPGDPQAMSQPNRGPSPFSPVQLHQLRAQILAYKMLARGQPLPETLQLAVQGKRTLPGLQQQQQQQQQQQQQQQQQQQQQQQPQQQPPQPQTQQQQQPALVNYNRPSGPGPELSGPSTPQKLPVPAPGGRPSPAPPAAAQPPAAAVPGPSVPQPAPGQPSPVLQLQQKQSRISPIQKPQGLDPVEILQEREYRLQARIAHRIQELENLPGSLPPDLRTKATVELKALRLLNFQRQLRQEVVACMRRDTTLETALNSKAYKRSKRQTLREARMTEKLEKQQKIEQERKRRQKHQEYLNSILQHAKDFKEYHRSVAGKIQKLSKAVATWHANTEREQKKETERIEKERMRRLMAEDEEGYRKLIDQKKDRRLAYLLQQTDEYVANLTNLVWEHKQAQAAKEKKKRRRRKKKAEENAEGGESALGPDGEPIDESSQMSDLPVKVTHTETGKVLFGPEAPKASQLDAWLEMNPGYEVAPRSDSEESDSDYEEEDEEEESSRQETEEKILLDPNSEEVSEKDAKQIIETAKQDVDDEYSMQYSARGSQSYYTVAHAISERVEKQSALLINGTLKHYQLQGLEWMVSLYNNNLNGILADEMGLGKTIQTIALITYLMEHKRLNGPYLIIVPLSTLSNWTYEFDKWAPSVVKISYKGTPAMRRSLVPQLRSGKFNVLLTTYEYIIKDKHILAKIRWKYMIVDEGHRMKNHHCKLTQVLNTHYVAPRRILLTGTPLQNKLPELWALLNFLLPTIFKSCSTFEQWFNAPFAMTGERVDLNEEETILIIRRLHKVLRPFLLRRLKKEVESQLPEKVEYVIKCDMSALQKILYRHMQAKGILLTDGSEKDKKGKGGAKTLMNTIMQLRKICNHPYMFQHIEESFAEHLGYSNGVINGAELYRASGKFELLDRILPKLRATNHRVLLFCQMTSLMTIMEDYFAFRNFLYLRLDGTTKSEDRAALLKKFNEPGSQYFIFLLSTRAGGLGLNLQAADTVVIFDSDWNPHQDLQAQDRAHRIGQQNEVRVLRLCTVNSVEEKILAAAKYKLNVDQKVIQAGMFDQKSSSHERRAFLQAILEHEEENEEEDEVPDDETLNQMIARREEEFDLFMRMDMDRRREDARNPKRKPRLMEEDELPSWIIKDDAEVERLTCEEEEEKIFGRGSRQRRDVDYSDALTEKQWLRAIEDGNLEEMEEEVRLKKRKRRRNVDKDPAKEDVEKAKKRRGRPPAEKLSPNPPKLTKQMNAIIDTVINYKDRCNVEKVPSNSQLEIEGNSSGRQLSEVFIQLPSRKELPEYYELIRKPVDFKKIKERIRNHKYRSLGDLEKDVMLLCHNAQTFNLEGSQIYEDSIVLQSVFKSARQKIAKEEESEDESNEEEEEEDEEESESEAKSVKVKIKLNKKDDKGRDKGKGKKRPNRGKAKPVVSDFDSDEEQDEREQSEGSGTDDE
Structure (SMILES),Dmax [1],DC50 [1],BRM HiBit Degradation Maximum (%) (HiBit-BRM fusion protein),DC50 (HiBit-BRM fusion protein)
"Cc1ncsc1-c1ccc([C@H](C)NC(=O)[C@@H]2C[C@@H](O)CN2C(=O)[C@@H](c2cc(N3CC[C@@H](c4cc5nnc(-c6ccccc6O)cc5n4C4CCC4)C3)no2)C(C)C)cc1 [Compound 88, (2S,4R)-1-((R)-2-(3-((R)-3-(5-cyclobutyl-3-(2-hydroxyphenyl)-5H-pyrrolo[3,2-c]pyridazin-6-yl)pyrrolidin-1-yl)isoxazol-5-yl)-3-methylbutanoyl)-4-hydroxy-N-((S)-1-(4-(4-methylthiazol-5-yl)phenyl)ethyl)pyrrolidine-2-carboxamide]",> 75%,> 10 nM,A (“A” indicates maximum degradation ≥75%),< 10 nM
"Cc1ncsc1-c1ccc(CNC(=O)[C@@H]2C[C@@H](O)CN2C(=O)[C@@H](c2cc(-c3cnc(N4CC[C@@H](c5cc6nnc(-c7ccccc7O)cc6n5C5CC5)C4)nc3)no2)C(C)C)cc1 [Compound 89, (2S,4R)-1-((R)-2-(3-(2-((R)-3-(5-cyclopropyl-3-(2-hydroxyphenyl)-5H-pyrrolo[3,2-c]pyridazin-6-yl)pyrrolidin-1-yl)pyrimidin-5-yl)isoxazol-5-yl)-3-methylbutanoyl)-4-hydroxy-N-(4-(4-methylthiazol-5-yl)benzyl)pyrrolidine-2-carboxamide]",> 50%,> 10 nM,A (“A” indicates maximum degradation ≥75%),> 10 nM
"Cc1ncsc1-c1ccc(CNC(=O)[C@@H]2C[C@@H](O)CN2C(=O)[C@@H](c2cc(-c3cnc(N4CC[C@H](c5cc6nnc(-c7ccccc7O)cc6n5C5CC5)C4)nc3)no2)C(C)C)cc1 [Compound 90, (2S,4R)-1-((R)-2-(3-(2-((S)-3-(5-cyclopropyl-3-(2-hydroxyphenyl)-5H-pyrrolo[3,2-c]pyridazin-6-yl)pyrrolidin-1-yl)pyrimidin-5-yl)isoxazol-5-yl)-3-methylbutanoyl)-4-hydroxy-N-(4-(4-methylthiazol-5-yl)benzyl)pyrrolidine-2-carboxamide]",< 50%,–,A (“A” indicates maximum degradation ≥75%),< 10 nM
"CC(C)[C@@H](C(=O)N1C[C@H](O)C[C@H]1C(=O)N[C@@H](C)c1ccc(F)cc1)c1cc(-c2cnc(N3CC[C@H](c4cc5nnc(-c6ccccc6O)cc5n4C4CC4)C3)nc2)no1 [Compound 92, (2S,4R)-1-((R)-2-(3-(2-((S)-3-(5-cyclopropyl-3-(2-hydroxyphenyl)-5H-pyrrolo[3,2-c]pyridazin-6-yl)pyrrolidin-1-yl)pyrimidin-5-yl)isoxazol-5-yl)-3-methylbutanoyl)-N-((S)-1-(4-fluorophenyl)ethyl)-4-hydroxypyrrolidine-2-carboxamide]",< 50%,–,A (“A” indicates maximum degradation ≥75%),< 10 nM
"CC(C)[C@@H](C(=O)N1C[C@H](O)C[C@H]1C(=O)N[C@@H](C)c1ccccc1)c1cc(-c2cnc(N3CC[C@H](c4cc5nnc(-c6ccccc6O)cc5n4C4CC4)C3)nc2)no1 [Compound 93, (2S,4R)-1-((R)-2-(3-(2-((S)-3-(5-cyclopropyl-3-(2-hydroxyphenyl)-5H-pyrrolo[3,2-c]pyridazin-6-yl)pyrrolidin-1-yl)pyrimidin-5-yl)isoxazol-5-yl)-3-methylbutanoyl)-4-hydroxy-N-((S)-1-phenylethyl)pyrrolidine-2-carboxamide]",< 50%,–,A (“A” indicates maximum degradation ≥75%),< 10 nM
"Cc1ncsc1-c1ccc([C@H](C)NC(=O)[C@@H]2C[C@@H](O)CN2C(=O)[C@@H](c2cc(-c3cnc(N4CC[C@@H](c5cc6nnc(-c7ccccc7O)cc6n5C56CC(C5)C6)C4)nc3)no2)C(C)C)cc1 [Compound 94, (2S,4R)-1-((R)-2-(3-(2-((R)-3-(5-(bicyclo[1.1.1]pentan-1-yl)-3-(2-hydroxyphenyl)-5H-pyrrolo[3,2-c]pyridazin-6-yl)pyrrolidin-1-yl)pyrimidin-5-yl)isoxazol-5-yl)-3-methylbutanoyl)-4-hydroxy-N-((S)-1-(4-(4-methylthiazol-5-yl)phenyl)ethyl)pyrrolidine-2-carboxamide]",< 50%,–,A (“A” indicates maximum degradation ≥75%),< 10 nM
"Cc1ncsc1-c1ccc([C@H](C)NC(=O)[C@@H]2C[C@@H](O)CN2C(=O)[C@@H](c2cc(-c3cnc(N4CC[C@H](c5cc6nnc(-c7ccccc7O)cc6n5C56CC(C5)C6)C4)nc3)no2)C(C)C)cc1 [Compound 95, (2S,4R)-1-((R)-2-(3-(2-((S)-3-(5-(bicyclo[1.1.1]pentan-1-yl)-3-(2-hydroxyphenyl)-5H-pyrrolo[3,2-c]pyridazin-6-yl)pyrrolidin-1-yl)pyrimidin-5-yl)isoxazol-5-yl)-3-methylbutanoyl)-4-hydroxy-N-((S)-1-(4-(4-methylthiazol-5-yl)phenyl)ethyl)pyrrolidine-2-carboxamide]",> 50%,> 10 nM,A (“A” indicates maximum degradation ≥75%),< 10 nM
"Cc1ncsc1-c1ccc([C@H](C)NC(=O)[C@@H]2C[C@@H](O)CN2C(=O)[C@@H](c2cc(N3CCC4(CC[C@H](c5cc6nnc(-c7ccccc7O)cc6n5C5CC5)C4)CC3)no2)C(C)C)cc1 [Compound 96, (2S,4R)-1-((R)-2-(3-((S)-2-(5-cyclopropyl-3-(2-hydroxyphenyl)-5H-pyrrolo[3,2-c]pyridazin-6-yl)-8-azaspiro[4.5]decan-8-yl)isoxazol-5-yl)-3-methylbutanoyl)-4-hydroxy-N-((S)-1-(4-(4-methylthiazol-5-yl)phenyl)ethyl)pyrrolidine-2-carboxamide]",> 50%,> 10 nM,A (“A” indicates maximum degradation ≥75%),< 10 nM
"Cc1ncsc1-c1ccc([C@H](C)NC(=O)[C@@H]2C[C@@H](O)CN2C(=O)[C@@H](c2cc(N3CCC4(CC[C@@H](c5cc6nnc(-c7ccccc7O)cc6n5C5CC5)C4)CC3)no2)C(C)C)cc1 [Compound 97, (2S,4R)-1-((R)-2-(3-((R)-2-(5-cyclopropyl-3-(2-hydroxyphenyl)-5H-pyrrolo[3,2-c]pyridazin-6-yl)-8-azaspiro[4.5]decan-8-yl)isoxazol-5-yl)-3-methylbutanoyl)-4-hydroxy-N-((S)-1-(4-(4-methylthiazol-5-yl)phenyl)ethyl)pyrrolidine-2-carboxamide]",< 50%,–,A (“A” indicates maximum degradation ≥75%),< 10 nM
"Cc1ncsc1-c1ccc([C@H](C)NC(=O)[C@@H]2C[C@@H](O)CN2C(=O)[C@@H](c2cc(N3CCC[C@H](c4cc5nnc(-c6ccccc6O)cc5n4C4CC4)C3)no2)C(C)C)cc1 [Compound 98, (2S,4R)-1-((R)-2-(3-((S)-3-(5-cyclopropyl-3-(2-hydroxyphenyl)-5H-pyrrolo[3,2-c]pyridazin-6-yl)piperidin-1-yl)isoxazol-5-yl)-3-methylbutanoyl)-4-hydroxy-N-((S)-1-(4-(4-methylthiazol-5-yl)phenyl)ethyl)pyrrolidine-2-carboxamide]",> 75%,> 10 nM,A (“A” indicates maximum degradation ≥75%),> 10 nM
"Cc1ncsc1-c1ccc([C@H](C)NC(=O)[C@@H]2C[C@@H](O)CN2C(=O)[C@@H](c2cc(N3CC[C@H](c4cc5nnc(-c6ccccc6O)cc5n4C4CC4)C3)no2)C(C)C)cc1 [Compound 99, (2S,4R)-1-((R)-2-(3-((S)-3-(5-cyclopropyl-3-(2-hydroxyphenyl)-5H-pyrrolo[3,2-c]pyridazin-6-yl)pyrrolidin-1-yl)isoxazol-5-yl)-3-methylbutanoyl)-4-hydroxy-N-((S)-1-(4-(4-methylthiazol-5-yl)phenyl)ethyl)pyrrolidine-2-carboxamide]",> 50%,> 10 nM,A (“A” indicates maximum degradation ≥75%),< 10 nM
"Cc1ncsc1-c1ccc([C@H](C)NC(=O)[C@@H]2C[C@@H](O)CN2C(=O)[C@@H](c2cc(N3CCC[C@@H](c4cc5nnc(-c6ccccc6O)cc5n4C4CC4)C3)no2)C(C)C)cc1 [Compound 100, (2S,4R)-1-((R)-2-(3-((R)-3-(5-cyclopropyl-3-(2-hydroxyphenyl)-5H-pyrrolo[3,2-c]pyridazin-6-yl)piperidin-1-yl)isoxazol-5-yl)-3-methylbutanoyl)-4-hydroxy-N-((S)-1-(4-(4-methylthiazol-5-yl)phenyl)ethyl)pyrrolidine-2-carboxamide]",< 50%,–,A (“A” indicates maximum degradation ≥75%),> 10 nM
"Cc1ncsc1-c1ccc([C@H](C)NC(=O)[C@@H]2C[C@@H](O)CN2C(=O)[C@@H](c2cc(N3C[C@@H]4C(c5cc6nnc(-c7ccccc7O)cc6n5C5CC5)[C@H]4C3)no2)C(C)C)cc1 (stereo partly drawn) [Compound 101, (2S,4R)-1-((R)-2-(3-((1S,5S)-6-(5-cyclopropyl-3-(2-hydroxyphenyl)-5H-pyrrolo[3,2-c]pyridazin-6-yl)-3-azabicyclo[3.1.0]hexan-3-yl)isoxazol-5-yl)-3-methylbutanoyl)-4-hydroxy-N-((S)-1-(4-(4-methylthiazol-5-yl)phenyl)ethyl)pyrrolidine-2-carboxamide]",> 50%,> 10 nM,A (“A” indicates maximum degradation ≥75%),< 10 nM
